From patent US20250263440A1, “CD38-BINDING AGENTS AND USES THEREOF” (PeptiDream Inc., priority 2019, published 2025)
Starred links: 1 amine or outer side, 2 acyl side, 3 side chain; linkers in the order of their positions; H or OH if unused. Positions of bridges follow the written chain, without caps; N, C: chain ends. Non-standard residues stand in square brackets, D forms with d. Residues, ends and D or L forms follow the SMILES beside them. *: point of attachment. Trp(6-aza) = N[C@@H](Cc1c[nH]c2cnccc12)C(=O)O; X2 = N=C(N)Nc1cccc(CC(N[*:1])C(=O)[*:2])c1; Bip = N[C@@H](Cc1ccc(-c2ccccc2)cc1)C(=O)O; Nle(6-Ph) = N[C@@H](CCCCc1ccccc1)C(=O)O; X3 = CCCCCCCCC[C@H](N[*:1])C(=O)[*:2]; X4 = CCCCCCC[C@H](N[*:1])C(=O)[*:2]; hhPhe = N[C@@H](CCCc1ccccc1)C(=O)O; Cit = NC(=O)NCCC[C@H](N)C(=O)O; Ahp(2) = CCCCC[C@H](N)C(=O)O; X1 = COCCOCCOCCOCCC(=O)*

Biological target: His-tagged CD38 (Homo sapiens, UniProt P28907)
Test: SPR assay (Biacore S200, Sensor Chip NTA, single-cycle kinetics) of SEQ ID NO.1 variants against His-tagged CD38
Assay type: binding
Conditions: for Kd: SPR Biacore S200, His-tagged CD38, calculated from ka and kd; for kon / koff: SPR Biacore S200, NTA chip, His-tagged CD38; for kon: read-out: Ka (association rate constant); for koff: read-out: Kd (dissociation rate constant)
Method: SPR assay was performed using Biacore S200 (Cytiva: Former GE Healthcare).
After the equilibration of Series S Sensor Chip NTA (produced by Cytiva: Former GE Healthcare) with Running Buffer (10 mM HEPES pH7.4, 150 mM NaCl, 0.05% Tween 20), followed by injection of 350 mM EDTA at a flow rate of 10 L/min for 60 seconds and […] NiCl2 at a flow rate of 10 L/min for 60 seconds, then 3 mM EDTA at a flow rate of 10 L/min for 120 seconds, sequently, to wash the sensor chip.
EDC/NHS mixture was injected at a flow rate of […] for 7 minutes to thereby activate the functional groups on sensor chip. His-tagged CD38 in Running Buffer (10 mM HEPES pH7.4, 150 mM NaCl, 0.05% Tween 20) was injected immobilized to at a flow rate of […]. For 7 minutes to immobilize the CD38 on the substrate surfaces of the sensor chip. Then Ethanolamine was injected at a flow rate of […] for 7 minutes.
1.0 M Ethanolamine(aq.) was injected at a flow rate of 10 L/min for 420 seconds for capping. 10 mM peptides (which were synthesised described above) in DMSO were diluted to obtain 10 uM with Running Buffer, and prepared 100 nM, 50 nM, 25 nM, 10 nM, 5 nM of each peptide's solutions (Peptide Samples).
Using these Peptide Samples, kinetics of peptides against His-tagged CD38 was measured. The method adopted for sample measurement was a single-cycle kinetics method. The analysis was conducted using the evaluation software 1.1 provided with Biacore S200. A DMSO correction curve obtained by solvent correction measurements was applied for the analysis. Kinetics fitting was done on the difference data obtained by subtracting the baseline data from sample measurement data.
KD values were calculated based on the association rate constant (ka) and dissociation rate constant (kd).

| Structure (SMILES) | Kd | kon | koff |
| --- | --- | --- | --- |
| CCCCC[C@@H]1NC(=O)[C@H](CCCCNC(=O)CCOCCOCCOCCOC)NC(=O)[C@H](C)NC(=O)CSC[C@@H](C(N)=O)NC(=O)[C@H](CC(=O)O)NC(=O)[C@H](CCCCC)NC(=O)[C@H](Cc2ccc(-c3ccccc3)cc2)NC(=O)[C@H](CC(C)C)NC(=O)[C@H](C(C)C)NC(=O)[C@H](CCC(=O)O)NC(=O)[C@H](CC(=O)O)NC(=O)[C@H](Cc2c[nH]cn2)NC(=O)[C@H](Cc2ccc(O)cc2)NC1=O [compound 18] ({CH2CO}-AK(X1)[Ahp(2)]YHDEVL[Bip][Ahp(2)]DC-NH2; thioether N-13) | 27.7 nM | 220000 M⁻¹ s⁻¹ | 0.006 s⁻¹ |
| CCCCC[C@@H]1NC(=O)[C@H](Cc2ccc(-c3ccccc3)cc2)NC(=O)[C@H](CC(C)C)NC(=O)[C@H](C(C)C)NC(=O)[C@H](CCC(=O)O)NC(=O)[C@H](CC(=O)O)NC(=O)[C@H](Cc2c[nH]cn2)NC(=O)[C@H](Cc2ccc(O)cc2)NC(=O)[C@H](CCCCNC(=O)CCOCCOCCOCCOC)NC(=O)[C@H](CCCNC(=N)N)NC(=O)[C@H](C)NC(=O)CSC[C@@H](C(N)=O)NC(=O)[C@H](CC(=O)O)NC1=O [compound 19] ({CH2CO}-ARK(X1)YHDEVL[Bip][Ahp(2)]DC-NH2; thioether N-13) |  | 160000 M⁻¹ s⁻¹ | 0.0012 s⁻¹ |
| CCCCC[C@@H]1NC(=O)[C@H](Cc2ccc(-c3ccccc3)cc2)NC(=O)[C@H](CC(C)C)NC(=O)[C@H](C(C)C)NC(=O)[C@H](CCC(=O)O)NC(=O)[C@H](CC(=O)O)NC(=O)[C@H](Cc2c[nH]cn2)NC(=O)[C@H](Cc2ccc(O)cc2)NC(=O)[C@H](CCCCC)NC(=O)[C@H](CCCNC(=N)N)NC(=O)[C@@H](C)NC(=O)CSC[C@@H](C(N)=O)NC(=O)[C@H](CC(=O)O)NC1=O [compound 20] ({CH2CO}-[dA]R[Ahp(2)]YHDEVL[Bip][Ahp(2)]DC-NH2; thioether N-13) | 10.6 nM | 730000 M⁻¹ s⁻¹ | 0.0077 s⁻¹ |
| CCCCC[C@@H]1NC(=O)[C@H](CCCNC(=N)N)NC(=O)[C@H](C)NC(=O)CSC[C@@H](C(N)=O)NC(=O)[C@H](CC(=O)O)NC(=O)[C@H](CCCCC)NC(=O)[C@H](Cc2ccc(-c3ccccc3)cc2)NC(=O)[C@H](CC(C)C)NC(=O)[C@H](C(C)C)NC(=O)[C@H](CCC(=O)O)NC(=O)[C@H](CC(=O)O)NC(=O)[C@H](Cc2c[nH]cn2)NC(=O)[C@H](C)NC1=O [compound 21] ({CH2CO}-AR[Ahp(2)]AHDEVL[Bip][Ahp(2)]DC-NH2; thioether N-13 (inferred); N-terminus and C-terminus assumed) |  | 310000 M⁻¹ s⁻¹ | 0.016 s⁻¹ |
| CCCCC[C@@H]1NC(=O)[C@H](CCCNC(=N)N)NC(=O)[C@H](C)NC(=O)CSC[C@@H](C(N)=O)NC(=O)[C@H](CC(=O)O)NC(=O)[C@H](CCCCC)NC(=O)[C@H](Cc2ccc(-c3ccccc3)cc2)NC(=O)[C@H](CC(C)C)NC(=O)[C@H](C(C)C)NC(=O)[C@H](CCC(=O)O)NC(=O)[C@H](CC(=O)O)NC(=O)[C@H](Cc2c[nH]c3cnccc23)NC(=O)[C@H](Cc2ccc(O)cc2)NC1=O [compound 22] ({CH2CO}-AR[Ahp(2)]Y[Trp(6-aza)]DEVL[Bip][Ahp(2)]DC-NH2; thioether N-13) | 10.9 nM | 790000 M⁻¹ s⁻¹ | 0.0087 s⁻¹ |
| CCCCCCC[C@@H]1NC(=O)[C@H](Cc2ccc(-c3ccccc3)cc2)NC(=O)[C@H](CC(C)C)NC(=O)[C@H](C(C)C)NC(=O)[C@H](CCC(=O)O)NC(=O)[C@H](CC(=O)O)NC(=O)[C@H](Cc2c[nH]cn2)NC(=O)[C@H](Cc2ccc(O)cc2)NC(=O)[C@H](CCCCC)NC(=O)[C@H](CCCNC(=N)N)NC(=O)[C@H](C)NC(=O)CSC[C@@H](C(N)=O)NC(=O)[C@H](CC(=O)O)NC1=O [compound 23] ({CH2CO}-AR[Ahp(2)]YHDEVL[Bip][X4]DC-NH2; thioether N-13) |  | 820000 M⁻¹ s⁻¹ | 0.0027 s⁻¹ |
| CCCCCCCCC[C@@H]1NC(=O)[C@H](Cc2ccc(-c3ccccc3)cc2)NC(=O)[C@H](CC(C)C)NC(=O)[C@H](C(C)C)NC(=O)[C@H](CCC(=O)O)NC(=O)[C@H](CC(=O)O)NC(=O)[C@H](Cc2c[nH]cn2)NC(=O)[C@H](Cc2ccc(O)cc2)NC(=O)[C@H](CCCCC)NC(=O)[C@H](CCCNC(=N)N)NC(=O)[C@H](C)NC(=O)CSC[C@@H](C(N)=O)NC(=O)[C@H](CC(=O)O)NC1=O [compound 24] ({CH2CO}-AR[Ahp(2)]YHDEVL[Bip][X3]DC-NH2; thioether N-13 (inferred); N-terminus and C-terminus assumed) |  | 370000 M⁻¹ s⁻¹ | 0.0013 s⁻¹ |

Continued, values first:

| Kd | kon | koff | Structure (SMILES) |
| --- | --- | --- | --- |
|  | 630000 M⁻¹ s⁻¹ | 0.00087 s⁻¹ | CCCCC[C@@H]1NC(=O)[C@H](CCCNC(=N)N)NC(=O)[C@H](C)NC(=O)CSC[C@@H](C(N)=O)NC(=O)[C@H](CC(=O)O)NC(=O)[C@H](CCCCc2ccccc2)NC(=O)[C@H](Cc2ccc(-c3ccccc3)cc2)NC(=O)[C@H](CC(C)C)NC(=O)[C@H](C(C)C)NC(=O)[C@H](CCC(=O)O)NC(=O)[C@H](CC(=O)O)NC(=O)[C@H](Cc2c[nH]cn2)NC(=O)[C@H](Cc2ccc(O)cc2)NC1=O [compound 25] ({CH2CO}-AR[Ahp(2)]YHDEVL[Bip][Nle(6-Ph)]DC-NH2; thioether N-13) |
|  | 1.9e+06 M⁻¹ s⁻¹ | 0.05 s⁻¹ | CCCCC[C@@H]1NC(=O)[C@H](CCCNC(=N)N)NC(=O)[C@H](C)NC(=O)CSC[C@@H](C(N)=O)NC(=O)[C@H](CC(=O)O)NC(=O)[C@H](CCCc2ccccc2)NC(=O)[C@H](Cc2ccc(-c3ccccc3)cc2)NC(=O)[C@H](CC(C)C)NC(=O)[C@H](C(C)C)NC(=O)[C@H](CCC(=O)O)NC(=O)[C@H](CC(=O)O)NC(=O)[C@H](Cc2c[nH]cn2)NC(=O)[C@H](Cc2ccc(O)cc2)NC1=O [compound 26] ({CH2CO}-AR[Ahp(2)]YHDEVL[Bip][hhPhe]DC-NH2; thioether N-13) |
|  | 560000 M⁻¹ s⁻¹ | 0.0028 s⁻¹ | CCCCC[C@@H]1NC(=O)[C@H](Cc2ccc(-c3ccccc3)cc2)NC(=O)[C@H](CC(C)C)NC(=O)[C@H](C(C)C)NC(=O)[C@H](CCC(=O)O)NC(=O)[C@H](CC(=O)O)NC(=O)[C@H](Cc2c[nH]cn2)NC(=O)[C@H](Cc2ccc(O)cc2)NC(=O)[C@H](CCCCC)NC(=O)[C@H](CCCNC(=N)N)NC(=O)[C@H](C)NC(=O)CSC[C@@H](C(N)=O)NC(=O)[C@H](C)NC1=O [compound 27] ({CH2CO}-AR[Ahp(2)]YHDEVL[Bip][Ahp(2)]AC-NH2; thioether N-13 (inferred); N-terminus and C-terminus assumed) |
| 2.4 nM | 680000 M⁻¹ s⁻¹ | 0.0016 s⁻¹ | CCCCC[C@@H]1NC(=O)[C@H](CCCNC(N)=O)NC(=O)[C@H](C)NC(=O)CSC[C@@H](C(N)=O)NC(=O)[C@H](CC(=O)O)NC(=O)[C@H](CCCCc2ccccc2)NC(=O)[C@H](Cc2ccc(-c3ccccc3)cc2)NC(=O)[C@H](CC(C)C)NC(=O)[C@H](C(C)C)NC(=O)[C@H](CCC(=O)O)NC(=O)[C@H](CC(=O)O)NC(=O)[C@H](Cc2c[nH]cn2)NC(=O)[C@H](Cc2ccc(O)cc2)NC1=O [compound 28] ({CH2CO}-A[Cit][Ahp(2)]YHDEVL[Bip][Nle(6-Ph)]DC-NH2; thioether N-13) |
|  | 380000 M⁻¹ s⁻¹ | 0.00078 s⁻¹ | CCCCC[C@@H]1NC(=O)C(Cc2cccc(NC(=N)N)c2)NC(=O)[C@H](C)NC(=O)CSC[C@@H](C(N)=O)NC(=O)[C@H](CC(=O)O)NC(=O)[C@H](CCCCC)NC(=O)[C@H](Cc2ccc(-c3ccccc3)cc2)NC(=O)[C@H](CC(C)C)NC(=O)[C@H](C(C)C)NC(=O)[C@H](CCC(=O)O)NC(=O)[C@H](CC(=O)O)NC(=O)[C@H](Cc2c[nH]cn2)NC(=O)[C@H](Cc2ccc(O)cc2)NC1=O (stereo partly shown) [compound 29] ({CH2CO}-A[X2][Ahp(2)]YHDEVL[Bip][Ahp(2)]DC-NH2; thioether N-13; C-terminus assumed) |
